According to US6737383B1, “Herbicidal oxadiazolidines” (priority 1999, dated 2004):

Legend:
sourgrass = experiment: Test D sourgrass; format: in vivo, Trichachne insularis; conditions: Preemergence, 0 to 100 scale
From the text: Seeds, tubers, or plant parts of Alexandergrass (Brachiaria plantaginea), bermuda-grass (Cynodon dactylon), common pursiane (Portulaca oleracea), common ragweed (Ambrosia elatior), common groundsel (Senecio vulgaris), dallisgrass (Paspalum dilatatum), goosegrass (Eleusine indica), guineagrass (Panicum maximum), itchgrass (Rottboellia exaltata), Johnson grass (Sorghum halepense), large crabgrass (Digitaria sanguinalis), pitted morningglory (Ipomoea lacunosa), purple nutsedge (Cyperus rotundus), sandbur (Cenchrus echinatus), sourgrass (Trichachne insularis), Spanishneedles (Bidens bipinnata), surinam grass (Brachiaria decumbens) and tall mallow (Malva sylvestris) were planted into greenhouse pots of flats containing greenhouse planting medium. Plant species were grown in separate pots or individual compartments. Preemergence applications were made within one day of planting the seed or plant part.
Test chemicals were formulated in a non-phytotoxic solvent mixture which included a surfactant and applied preemergence to the surface of the pot containing seeds in a sandy loam soil. Untreated control pots and treated pots were placed in the greenhouse for growth and visually evaluated for injury 14 to 21 days after herbicide application. Plant response ratings, summarized in Table C, are based on a 0 to 100 scale where 0 is no injury and 100 is complete control. A dash (−) response means no test result.

annual bluegrass [1] = experiment: Test E annual bluegrass; format: in vivo, Poa annua; conditions: Postemergence
Description: (§1) Compounds evaluated in this test were formulated in a non-phytotoxic solvent mixture which included a surfactant and applied to plants that were in the 1- to 4-leaf stage (postemergence application). A mixture of sandy loam soil and greenhouse potting mix in a 60:40 ratio was used for the postemergence test.
(§2) Plantings of these crops and weed species were adjusted to produce plants of appropriate size for the postemergence test. All plant species were grown using normal greenhouse practices. Crop and weed species include annual bluegrass (Poa annua), blackgrass (Alopecurus myosuroides), black nightshade (Solanum nigra), chickweed (Stellaria media), common poppy (Papaver rhoeas), deadnettle (Lamium amplexicaule), downy brome (Bromus tectorum), field violet (Viola arvensis), galium (Galium aparine), green foxtail (Setaria viridis), Italian ryegrass (Lolium multiflorum), jointed goatgrass (Aegilops cylindrica), kochia (Kochia scoparia), lambsquarters (Chenopodium album), littleseed canarygrass (Phalaris minor), rape (Brassica napus), redroot pigweed (Amaranthus retroflexus), Russian thistle (Salsola kali), scentless chamomile (Matricaria inodora), spring barley (Hordeum vulgare), sugar beet (Beta vulgaris), sunflower (Helianthus annuus), ivyleaf speedwell (Veronica hederaefolia), spring wheat (Triticum aestivum), winter wheat (Triticum aestivum), wild buckwheat (Polygonum convolvulus), wild mustard (Sinapis arvensis), wild oat (Avena fatua), windgrass (Apera spica-venti) and winter barley (Hordeum vulgare).
(§3) Treated plants and untreated controls were maintained in a greenhouse for approximately 21 to 28 days, after which all treated plants were compared to untreated controls and visually evaluated. […] A dash response (-) means no test result.

black nightshade = experiment: Test E black nightshade; format: in vivo, Solanum nigra; conditions: Postemergence
Description: as §1, §2, §3

green foxtail = experiment: Test E green foxtail; format: in vivo, Setaria viridis; conditions: Postemergence
Method in brief: (§4)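 Visually scored herbicidal effect relative to untreated plants, taken ~21 to 28 days post-application; compound in solvent with surfactant; postemergence sprays at the 1- to 4-leaf stage.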

scentless chamomile = experiment: Test E scentless chamomile; format: in vivo, Matricaria inodora; conditions: Postemergence
Method in brief: as §4

sugar beet = experiment: Test E sugar beet; format: in vivo, Beta vulgaris; conditions: Postemergence
Description: as §1, §2, §3

sunflower [2] = experiment: Test E sunflower; format: in vivo, Helianthus annuus; conditions: Postemergence
Description: as §2, with “Plantings of these crops and weed species were adjusted to produce plants of appropriate size for the postemergence test.” left out
as §3

ivyleaf speedwell = experiment: Test E postemergence ivyleaf speedwell; format: in vivo, Veronica hederaefolia
Description: as §1, §2, §3

wild buckwheat [3] = experiment: Test E wild buckwheat; format: in vivo, Polygonum convolvulus; conditions: Postemergence
Method in brief: as §4

wild oat = experiment: Test E wild oat; format: in vivo, Avena fatua; conditions: Postemergence
Method in brief: as §4

annual bluegrass [4] = experiment: Test E annual bluegrass; format: in vivo, Poa annua; conditions: Preemergence
jointed goatgrass = experiment: Test E jointed goatgrass; format: in vivo, Aegilops cylindrica; conditions: Preemergence
lambsquarters = experiment: Test E lambsquarters; format: in vivo, Chenopodium album; conditions: Preemergence
redroot pigweed = experiment: Test E redroot pigweed; format: in vivo, Amaranthus retroflexus; conditions: Preemergence
sunflower [5] = experiment: Test E sunflower; format: in vivo, Helianthus annuus; conditions: Preemergence
wild buckwheat [6] = experiment: Test E wild buckwheat; format: in vivo, Polygonum convolvulus; conditions: Preemergence
[7] = Rate 250 g/ha, 0 to 100 scale (0 no effect, 100 complete control)
[8] = Rate 62 g/ha, 0 to 100 scale, 0 no effect, 100 complete control
[9] = Rate 125 g/ha, 0 to 100 scale (0 no effect, 100 complete control)

SMILES: Cc1ccccc1-n1c(=O)on(C(=O)N(c2ccc(F)cc2)C(C)C)c1=O [Compound 4]
- Plant response rating, Sourgrass (sourgrass; Rate 16 g/ha, 0 no injury, 100 complete control): 50
- Plant response rating, Sourgrass (sourgrass; Rate 32 g/ha, 0 no injury, 100 complete control): 65
- Sourgrass plant response rating (sourgrass; Rate 64 g/ha, 0 no injury, 100 complete control): 90
- Sourgrass plant response rating (sourgrass; Rate 125 g/ha, 0 no injury, 100 complete control): 100
- Plant response rating, Sourgrass (sourgrass; Rate 250 g/ha): 100
- Plant response rating, Sourgrass (sourgrass; Rate 500 g/ha): 100

SMILES: C=CCn1c(=O)on(C(=O)N(c2ccccc2)C(C)C)c1=O [Compound 93]
- Plant response rating, Annual bluegras (annual bluegrass [1]; Rate 62 g/ha, 0 to 100 scale): 20
- Plant response rating, Annual bluegras (annual bluegrass [1]; Rate 125 g/ha, 0 to 100 scale): 20
- Plant response rating, Annual bluegras (annual bluegrass [1]; [7]): 50
- Plant response rating, Blk nightshade (black nightshade; Rate 62 g/ha, 0 to 100 scale): 0
- Plant response rating, Blk nightshade (black nightshade; Rate 125 g/ha, 0 to 100 scale): 0
- Plant response rating, Blk nightshade (black nightshade; [7]): 50
- Plant response rating, Green foxtail (green foxtail; Rate 62 g/ha, 0 to 100 scale): 0
- Plant response rating, Green foxtail (green foxtail; Rate 125 g/ha, 0 to 100 scale): 0
- Plant response rating, Green foxtail (green foxtail; [7]): 0
- Plant response rating, Scentless chamo (scentless chamomile; Rate 62 g/ha, 0 to 100 scale): 0
- Plant response rating, Scentless chamo (scentless chamomile; Rate 125 g/ha, 0 to 100 scale): 0
- Plant response rating, Scentless chamo (scentless chamomile; [7]): 0
- Plant response rating, Sugar beet (sugar beet; Rate 62 g/ha, 0 to 100 scale): 0
- Plant response rating, Sugar beet (sugar beet; Rate 125 g/ha, 0 to 100 scale): 0
- Plant response rating, Sugar beet (sugar beet; [7]): 0
- Plant response rating, Sunflower (sunflower [2]; Rate 62 g/ha, 0 to 100 scale): 0
- Plant response rating, Sunflower (sunflower [2]; Rate 125 g/ha, 0 to 100 scale): 0
- Plant response rating, Sunflower (sunflower [2]; [7]): 0
- Plant response rating, Veronica hedera (ivyleaf speedwell; Rate 62 g/ha, 0 to 100 scale): 0
- Plant response rating, Veronica hedera (ivyleaf speedwell; Rate 125 g/ha, 0 to 100 scale): 0
- Plant response rating, Veronica hedera (ivyleaf speedwell; [7]): 0
- Plant response rating, Wild buckwheat (wild buckwheat [3]; Rate 62 g/ha, 0 to 100 scale): 0
- Plant response rating, Wild buckwheat (wild buckwheat [3]; Rate 125 g/ha, 0 to 100 scale): 0
- Plant response rating, Wild buckwheat (wild buckwheat [3]; [7]): 0
- Plant response rating, Wild oat (wild oat; Rate 62 g/ha, 0 to 100 scale): 0
- Plant response rating, Wild oat (wild oat; Rate 125 g/ha, 0 to 100 scale): 0
- Plant response rating, Wild oat (wild oat; [7]): 0
- Plant response rating, Annual bluegras (annual bluegrass [4]; [8]): 10
- Plant response rating, Annual bluegras (annual bluegrass [4]; [9]): 50
- Plant response rating, Annual bluegras (annual bluegrass [4]; Rate 250 g/ha, 0 to 100 scale): 65
- Plant response rating, Jointed goatgra (jointed goatgrass; [8]): 15
- Plant response rating, Jointed goatgra (jointed goatgrass; [9]): 70
- Plant response rating, Jointed goatgra (jointed goatgrass; Rate 250 g/ha, 0 to 100 scale): 60
- Plant response rating, Lambsquarters (lambsquarters; [8]): 100
- Plant response rating, Lambsquarters (lambsquarters; [9]): 100
- Plant response rating, Lambsquarters (lambsquarters; Rate 250 g/ha, 0 to 100 scale): 100
- Plant response rating, Redroot pigweed (redroot pigweed; [8]): 100
- Plant response rating, Redroot pigweed (redroot pigweed; [9]): 100
- Plant response rating, Redroot pigweed (redroot pigweed; Rate 250 g/ha, 0 to 100 scale): 90
- Plant response rating, Sunflower (sunflower [5]; [8]): 10
- Plant response rating, Sunflower (sunflower [5]; [9]): 5
- Plant response rating, Sunflower (sunflower [5]; Rate 250 g/ha, 0 to 100 scale): 20
- Plant response rating, Wild buckwheat (wild buckwheat [6]; [8]): 30
- Plant response rating, Wild buckwheat (wild buckwheat [6]; [9]): 30
- Plant response rating, Wild buckwheat (wild buckwheat [6]; Rate 250 g/ha, 0 to 100 scale): 40

SMILES: CCn1c(=O)on(C(=O)N(c2ccc(Cl)cc2)C(C)C)c1=O [Compound 108]
- Plant response rating, Annual bluegras (annual bluegrass [1]; Rate 62 g/ha, 0 to 100 scale): 0
- Plant response rating, Annual bluegras (annual bluegrass [1]; Rate 125 g/ha, 0 to 100 scale): 15
- Plant response rating, Annual bluegras (annual bluegrass [1]; [7]): 50
- Plant response rating, Blk nightshade (black nightshade; Rate 62 g/ha, 0 to 100 scale): 20
- Plant response rating, Blk nightshade (black nightshade; Rate 125 g/ha, 0 to 100 scale): 30
- Plant response rating, Blk nightshade (black nightshade; [7]): 50
- Plant response rating, Green foxtail (green foxtail; Rate 62 g/ha, 0 to 100 scale): 10
- Plant response rating, Green foxtail (green foxtail; Rate 125 g/ha, 0 to 100 scale): 15
- Plant response rating, Green foxtail (green foxtail; [7]): 75
- Plant response rating, Scentless chamo (scentless chamomile; Rate 62 g/ha, 0 to 100 scale): 10
- Plant response rating, Scentless chamo (scentless chamomile; Rate 125 g/ha, 0 to 100 scale): 0
- Plant response rating, Scentless chamo (scentless chamomile; [7]): 10
- Plant response rating, Sugar beet (sugar beet; Rate 62 g/ha, 0 to 100 scale): 5
- Plant response rating, Sugar beet (sugar beet; Rate 125 g/ha, 0 to 100 scale): 10
- Plant response rating, Sugar beet (sugar beet; [7]): 20
- Plant response rating, Sunflower (sunflower [2]; Rate 62 g/ha, 0 to 100 scale): 20
- Plant response rating, Sunflower (sunflower [2]; Rate 125 g/ha, 0 to 100 scale): 30
- Plant response rating, Sunflower (sunflower [2]; [7]): 35
- Plant response rating, Veronica hedera (ivyleaf speedwell; Rate 62 g/ha, 0 to 100 scale): 0
- Plant response rating, Veronica hedera (ivyleaf speedwell; Rate 125 g/ha, 0 to 100 scale): 10
- Plant response rating, Veronica hedera (ivyleaf speedwell; [7]): 40
- Plant response rating, Wild buckwheat (wild buckwheat [3]; Rate 62 g/ha, 0 to 100 scale): 0
- Plant response rating, Wild buckwheat (wild buckwheat [3]; Rate 125 g/ha, 0 to 100 scale): 20
- Plant response rating, Wild buckwheat (wild buckwheat [3]; [7]): 10
- Plant response rating, Wild oat (wild oat; Rate 62 g/ha, 0 to 100 scale): 0
- Plant response rating, Wild oat (wild oat; Rate 125 g/ha, 0 to 100 scale): 5
- Plant response rating, Wild oat (wild oat; [7]): 20
- Plant response rating, Annual bluegras (annual bluegrass [4]; [8]): 20
- Plant response rating, Annual bluegras (annual bluegrass [4]; [9]): 60
- Plant response rating, Annual bluegras (annual bluegrass [4]; Rate 250 g/ha, 0 to 100 scale): 60
- Plant response rating, Jointed goatgra (jointed goatgrass; [8]): 30
- Plant response rating, Jointed goatgra (jointed goatgrass; [9]): 40
- Plant response rating, Jointed goatgra (jointed goatgrass; Rate 250 g/ha, 0 to 100 scale): 60
- Plant response rating, Lambsquarters (lambsquarters; [8]): 80
- Plant response rating, Lambsquarters (lambsquarters; [9]): 100
- Plant response rating, Lambsquarters (lambsquarters; Rate 250 g/ha, 0 to 100 scale): 90
- Plant response rating, Redroot pigweed (redroot pigweed; [8]): 70
- Plant response rating, Redroot pigweed (redroot pigweed; [9]): 90
- Plant response rating, Redroot pigweed (redroot pigweed; Rate 250 g/ha, 0 to 100 scale): 90
- Plant response rating, Sunflower (sunflower [5]; [8]): 0
- Plant response rating, Sunflower (sunflower [5]; [9]): 0
- Plant response rating, Sunflower (sunflower [5]; Rate 250 g/ha, 0 to 100 scale): 10
- Plant response rating, Wild buckwheat (wild buckwheat [6]; [8]): 60
- Plant response rating, Wild buckwheat (wild buckwheat [6]; [9]): 100
- Plant response rating, Wild buckwheat (wild buckwheat [6]; Rate 250 g/ha, 0 to 100 scale): 80
